The results in this text go back to PMC3677594, “Characterization of a novel Entamoeba histolytica strain from Burkina Faso, Africa, possessing a unique hexokinase-2 gene” (Parasite, 2011).

What all share (format): biochemical
Assay [1] deals with T1, HXK-2 (Entamoeba nuttalli, UniProt C5NNG6).
T1 construct: gene ENUP19_0206G0024; native full-length enzyme in freeze-thaw lysate, resolved by IEF or starch gel
T1 sequence (C5NNG6 1-445): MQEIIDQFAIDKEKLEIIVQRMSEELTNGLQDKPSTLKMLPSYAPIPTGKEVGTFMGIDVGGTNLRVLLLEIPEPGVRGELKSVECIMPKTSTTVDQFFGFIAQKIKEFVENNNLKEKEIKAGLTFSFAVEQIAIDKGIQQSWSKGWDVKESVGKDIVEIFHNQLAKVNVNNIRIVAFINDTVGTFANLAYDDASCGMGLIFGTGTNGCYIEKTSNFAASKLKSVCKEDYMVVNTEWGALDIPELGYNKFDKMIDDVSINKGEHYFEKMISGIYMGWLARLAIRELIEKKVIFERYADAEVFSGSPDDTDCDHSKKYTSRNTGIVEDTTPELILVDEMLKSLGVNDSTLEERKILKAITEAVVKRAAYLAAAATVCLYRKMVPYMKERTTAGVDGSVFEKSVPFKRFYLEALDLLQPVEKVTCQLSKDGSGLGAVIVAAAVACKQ
The experiment in a line: in-gel glucokinase activity stain after IEF or starch gel. Conditions: ATP; G6PDH-coupled, NADPH-formazan read-out.

Assay [2] deals with T2, HXK-1 (Entamoeba histolytica, UniProt A0A8U0WP42).
T2 construct: gene EHI_098290; native full-length enzyme in freeze-thaw amoeba lysate, resolved by IEF or starch gel
T2 sequence (A0A8U0WP42 1-445): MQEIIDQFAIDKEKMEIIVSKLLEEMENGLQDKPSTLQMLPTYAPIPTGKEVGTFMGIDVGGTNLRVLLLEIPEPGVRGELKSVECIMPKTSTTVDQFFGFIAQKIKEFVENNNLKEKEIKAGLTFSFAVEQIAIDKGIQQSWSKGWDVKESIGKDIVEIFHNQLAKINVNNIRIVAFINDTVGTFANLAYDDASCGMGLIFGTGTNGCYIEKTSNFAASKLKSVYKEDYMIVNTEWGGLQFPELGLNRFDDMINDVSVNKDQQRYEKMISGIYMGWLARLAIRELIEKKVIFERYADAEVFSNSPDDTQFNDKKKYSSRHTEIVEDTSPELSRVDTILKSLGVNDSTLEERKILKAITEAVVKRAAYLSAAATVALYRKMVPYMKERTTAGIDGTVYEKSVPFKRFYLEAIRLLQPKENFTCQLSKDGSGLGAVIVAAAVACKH
The assay is described as above. The following applies: ATP; G6PDH-coupled, NADPH-formazan read-out.

Assay [3] addresses T3, HXK-2 (Entamoeba histolytica, UniProt A0A8U0WP47).
T3 construct: gene EHI_098560; native full-length enzyme in freeze-thaw lysate, resolved by IEF or starch gel
T3 sequence (A0A8U0WP47 1-445): T1 sequence (C5NNG6 1-445) with V153I, V168I, V232I, I354M
The description is as above. The following applies: ATP; G6PDH-coupled, NADPH-formazan read-out.

In assay [4] the target is T4, HXK-1 (Entamoeba dispar, UniProt O09487).
T4 construct: gene hxk1; native full-length enzyme in freeze-thaw lysate, resolved by IEF or starch gel
T4 sequence (O09487 entry or part of it): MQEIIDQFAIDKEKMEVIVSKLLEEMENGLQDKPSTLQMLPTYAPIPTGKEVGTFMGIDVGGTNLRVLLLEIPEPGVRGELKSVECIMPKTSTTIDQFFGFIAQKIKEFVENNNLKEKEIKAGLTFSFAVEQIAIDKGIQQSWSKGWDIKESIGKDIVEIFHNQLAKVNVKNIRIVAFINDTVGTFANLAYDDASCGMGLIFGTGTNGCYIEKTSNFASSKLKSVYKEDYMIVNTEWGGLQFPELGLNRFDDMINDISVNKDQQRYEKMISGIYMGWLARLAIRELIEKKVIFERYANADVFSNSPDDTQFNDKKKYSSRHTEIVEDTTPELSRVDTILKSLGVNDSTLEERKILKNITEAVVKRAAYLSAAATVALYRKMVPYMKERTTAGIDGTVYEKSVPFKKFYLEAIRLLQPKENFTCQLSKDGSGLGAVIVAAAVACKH
The description is as above. Conditions: ATP; G6PDH-coupled, NADPH-formazan read-out.

The target in assay [5] is T5, HXK-1 (Entamoeba nuttalli, UniProt C5NNG5).
T5 construct: native full-length enzyme in freeze-thaw lysate, resolved by IEF or starch gel
T5 sequence (C5NNG5 1-445): T2 sequence (A0A8U0WP42 1-445) with E13G, I153V, I168V
The assay is described as above. Conditions: ATP; G6PDH-coupled, NADPH-formazan read-out.

In assay [6] the target is T6, HXK-2 (Entamoeba dispar, UniProt O09488).
T6 construct: gene hxk2; native full-length enzyme in freeze-thaw lysate, resolved by IEF or starch gel
T6 sequence (O09488 1-445): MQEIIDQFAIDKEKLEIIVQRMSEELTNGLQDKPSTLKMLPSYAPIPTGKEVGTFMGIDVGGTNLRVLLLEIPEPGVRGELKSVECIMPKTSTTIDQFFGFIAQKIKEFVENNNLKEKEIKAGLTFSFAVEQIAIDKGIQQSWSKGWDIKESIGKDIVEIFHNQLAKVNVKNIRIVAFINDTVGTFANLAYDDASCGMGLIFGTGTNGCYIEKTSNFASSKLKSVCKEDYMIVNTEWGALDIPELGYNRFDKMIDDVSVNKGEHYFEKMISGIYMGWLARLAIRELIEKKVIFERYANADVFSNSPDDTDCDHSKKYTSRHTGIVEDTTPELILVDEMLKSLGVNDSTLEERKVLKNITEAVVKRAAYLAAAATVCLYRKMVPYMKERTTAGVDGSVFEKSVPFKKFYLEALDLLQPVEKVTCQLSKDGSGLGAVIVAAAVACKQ
Described as above. The following applies: ATP; G6PDH-coupled, NADPH-formazan read-out.

Assay [7] deals with T6, HXK-2. The experiment in a line: in-gel mannokinase activity stain after IEF. The following applies: ATP; coupled with MPI, GPI and G6PDH XV, or directly with G6PDH II.
The target of assay [8] is T5, HXK-1. In words: in-gel mannokinase activity stain after IEF. The following applies: ATP; coupled with MPI, GPI and G6PDH XV, or directly with G6PDH II.
Assay [9] deals with T2, HXK-1. The experiment in a line: in-gel mannokinase activity stain after IEF. Conditions: ATP; coupled with MPI, GPI and G6PDH XV, or directly with G6PDH II.
The target in assay [10] is T4, HXK-1. The experiment in a line: in-gel mannokinase activity stain after IEF. The following applies: ATP; coupled with MPI, GPI and G6PDH XV, or directly with G6PDH II.
Assay [11] has as its target T3, HXK-2. The experiment in a line: in-gel mannokinase activity stain after IEF. Conditions: ATP; coupled with MPI, GPI and G6PDH XV, or directly with G6PDH II.
Assay [12] has as its target T1, HXK-2. The experiment in a line: in-gel mannokinase activity stain after IEF. The following applies: ATP; coupled with MPI, GPI and G6PDH XV, or directly with G6PDH II.

Substitutions are numbered along the chain they refer to.

On to `OC[C@H]1OC(O)[C@H](O)[C@@H](O)[C@@H]1O` (stereo partly drawn) [glucose], for which the “in-gel glucokinase activity stain after IEF or starch gel” value in [1], in assay [2], in assay [3], in assay [4], in assay [5] and in assay [6] was “substrate specificity of the HXKs of the six strains of Entamoeba spp. to phosphorylated glucose” in each case.

With `OC[C@H]1OC(O)[C@@H](O)[C@@H](O)[C@@H]1O` (stereo partly drawn) [mannose], the “in-gel mannokinase activity stain after IEF” value in assay [7] was “no differences in mannokinase activity were observed between the isoenzymes HXK-1 and HXK-2”; in [8] it was “no differences in mannokinase activity were observed between the isoenzymes HXK-1 and HXK-2”; in assay [9], “no differences in mannokinase activity were observed between the isoenzymes HXK-1 and HXK-2”; in assay [10] it was “no differences in mannokinase activity were observed between the isoenzymes HXK-1 and HXK-2”; in [11], “no differences in mannokinase activity were observed between the isoenzymes HXK-1 and HXK-2”; in [12], “no differences in mannokinase activity were observed between the isoenzymes HXK-1 and HXK-2”.
